Measured values as given in patent US12091402B2 (Avilar Therapeutics, Inc., priority 2021, dated 2024).

Target: T1, ASGPR (Homo sapiens, UniProt P07306)
T1 sequence (P07306 1-291): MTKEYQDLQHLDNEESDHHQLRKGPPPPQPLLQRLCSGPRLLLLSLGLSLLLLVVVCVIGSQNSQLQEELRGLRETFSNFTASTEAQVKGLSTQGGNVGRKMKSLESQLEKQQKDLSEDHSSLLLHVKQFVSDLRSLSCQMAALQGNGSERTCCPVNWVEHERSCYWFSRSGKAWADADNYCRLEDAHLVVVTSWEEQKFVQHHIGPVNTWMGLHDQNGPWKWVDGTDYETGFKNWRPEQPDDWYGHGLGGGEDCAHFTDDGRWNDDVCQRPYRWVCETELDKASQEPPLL
Assay: Affinity to ASGPR by surface plasmon resonance (SPR)

Kd [nM] | SMILES
1000 to 10000 | C=CCO[C@H]1O[C@H](Cn2cc(-c3cccc(OC)c3)nn2)[C@H](O)[C@H](O)[C@H]1Nc1nccc(C(F)(F)F)n1 [A58, (2R,3R,4R,5R,6S)-6-(allyloxy)-2-((4-(3-methoxyphenyl)-1H-1,2,3-triazol-1-yl)methyl)-5-((4-(trifluoromethyl)pyrimidin-2-yl)amino)tetrahydro-2H-pyran-3,4-diol]
1000 to 10000 | N#Cc1cc(F)cnc1N[C@H]1[C@H]2OC[C@](CO)(O2)[C@H](O)[C@@H]1O [A40, 2-[[(1S,2R,3R,4R,5S)-2,3-dihydroxy-1-(hydroxymethyl)-6,8-dioxabicyclo[3.2.1]octan-4-yl]amino]-5-fluoro-pyridine-3-carbonitrile]
100 to 500 | [N-]=[N+]=NCCOCCOCCOCCOC[C@H]1OC[C@H](Nc2cncc(C(F)(F)F)n2)[C@@H](O)[C@H]1O [A21, (2R,3R,4R,5S)-2-(13-azido-2,5,8,11-tetraoxatridecyl)-5-((6-(trifluoromethyl)pyrazin-2-yl)amino)tetrahydro-2H-pyran-3,4-diol]
< 1000 | C=CCO[C@H]1O[C@H](CN=[N+]=[N-])[C@H](O)[C@H](O)[C@H]1Nc1nccc(C(F)(F)F)n1 [A72, (2R,3R,4R,5R,6S)-6-(allyloxy)-2-(azidomethyl)-5-((4-(trifluoromethyl)pyrimidin-2-yl)amino)tetrahydro-2H-pyran-3,4-diol]
10000 to 100000 | OC[C@@]12CO[C@@H](O1)[C@H](Nc1nccc(C(F)(F)F)c1F)[C@@H](O)[C@H]2O [A42, (1S,2R,3R,4R,5S)-4-[[3-fluoro-4-(trifluoromethyl)-2-pyridyl]amino]-1-(hydroxymethyl)-6,8-dioxabicyclo[3.2.1]octane-2,3-diol]
< 1000 | CC(=O)NC[C@H]1OC[C@H](Nc2cncc(C(F)(F)F)n2)[C@@H](O)[C@H]1O [A90, N-(((2R,3R,4R,5S)-3,4-dihydroxy-5-((6-(trifluoromethyl)pyrazin-2-yl)amino)tetrahydro-2H-pyran-2-yl)methyl)acetamide]
< 1000 | [N-]=[N+]=NC[C@H]1OC[C@H](Nc2cncc(C(F)(F)F)n2)[C@@H](O)[C@H]1O [A86, (2R,3R,4R,5S)-2-(azidomethyl)-5-((6-(trifluoromethyl)pyrazin-2-yl)amino)tetrahydro-2H-pyran-3,4-diol]
1000 to 10000 | N#Cc1ccnnc1N[C@H]1[C@H]2OC[C@](CO)(O2)[C@H](O)[C@@H]1O [A39, 3-[[(1S,2R,3R,4R,5S)-2,3-dihydroxy-1-(hydroxymethyl)-6,8-dioxabicyclo[3.2.1]octan-4-yl]amino]pyridazine-4-carbonitrile]
< 100 | [N-]=[N+]=NCCCCCC(=O)NC(COCc1cn(CCOCCOCCOCCOC[C@H]2OC[C@H](Nc3nccc(C(F)(F)F)n3)[C@@H](O)[C@H]2O)nn1)COCc1cn(CCOCCOCCOCCOC[C@H]2OC[C@H](Nc3nccc(C(F)(F)F)n3)[C@@H](O)[C@H]2O)nn1 [A15, 6-azido-N-(1,3-bis((1-(1-((2R,3R,4R,5S)-3,4-dihydroxy-5-((4-(trifluoromethyl)pyrimidin-2-yl)amino)tetrahydro-2H-pyran-2-yl)-2,5,8,11-tetraoxatridecan-13-yl)-1H-1,2,3-triazol-4-yl)methoxy)propan-2-yl)hexanamide]
1000 to 10000 | O[C@@H]1[C@H](O)[C@@H](Nc2cncc(C(F)(F)F)n2)CO[C@@H]1CN1CCCCC1 [A96, (2R,3R,4R,5S)-2-(piperidin-1-ylmethyl)-5-((6-(trifluoromethyl)pyrazin-2-yl)amino)tetrahydro-2H-pyran-3,4-diol]
< 1000 | O[C@@H]1[C@H](O)[C@@H](Nc2cncc(C(F)(F)F)n2)CO[C@@H]1CNc1cnccn1 [A122]
10000 to 100000 | COc1cccc(-n2cc([C@H]3OC[C@H](Nc4nccc(C(F)(F)F)n4)[C@@H](O)[C@H]3O)nn2)c1 [A61, (2R,3R,4R,5S)-2-(1-(3-methoxyphenyl)-1H-1,2,3-triazol-4-yl)-5-((4-(trifluoromethyl)pyrimidin-2-yl)amino)tetrahydro-2H-pyran-3,4-diol]
< 100 | O=C(O)CC(=O)NC(COCCC(=O)NCCOCCOCCOCCOC[C@H]1OC[C@H](Nc2cncc(C(F)(F)F)n2)[C@@H](O)[C@H]1O)COCCC(=O)NCCOCCOCCOCCOC[C@H]1OC[C@H](Nc2cncc(C(F)(F)F)n2)[C@@H](O)[C@H]1O [A34, 1-((2R,3R,4R,5S)-3,4-dihydroxy-5-((6-(trifluoromethyl)pyrazin-2-yl)amino)tetrahydro-2H-pyran-2-yl)-20-(1-((2R,3R,4R,5S)-3,4-dihydroxy-5-((6-(trifluoromethyl)pyrazin-2-yl)amino)tetrahydro-2H-pyran-2-yl)-15-oxo-2,5,8,11,18-pentaoxa-14-azanonadecan-19-yl)-15,22-dioxo-2,5,8,11,18-pentaoxa-14,21-diazatetracosan-24-oic acid]
< 100 | NC(COCCC(=O)NCCOCCOCCOCCOC[C@H]1OC[C@H](Nc2nccc(C(F)(F)F)n2)[C@@H](O)[C@H]1O)COCCC(=O)NCCOCCOCCOCCOC[C@H]1OC[C@H](Nc2nccc(C(F)(F)F)n2)[C@@H](O)[C@H]1O [A13, 3,3′-((2-aminopropane-1,3-diyl)bis(oxy))bis(N-(1-((2R,3R,4R,5S)-3,4-dihydroxy-5-((4-(trifluoromethyl)pyrimidin-2-yl)amino)tetrahydro-2H-pyran-2-yl)-2,5,8,11-tetraoxatridecan-13-yl)propanamide)]
< 1000 | COc1cc(C(F)(F)F)nc(N[C@H]2[C@H]3OC[C@](CO)(O3)[C@H](O)[C@@H]2O)n1 [A46, (1S,2R,3R,4R,5S)-1-(hydroxymethyl)-4-((4-methoxy-6-(trifluoromethyl)pyrimidin-2-yl)amino)-6,8-dioxabicyclo[3.2.1]octane-2,3-diol]
< 1000 | [N-]=[N+]=NC[C@@]12CO[C@@H](O1)[C@H](Nc1nc(Cl)ns1)[C@@H](O)[C@H]2O [A74, (1S,2R,3R,4R,5S)-1-(azidomethyl)-4-((3-chloro-1,2,4-thiadiazol-5-yl)amino)-6,8-dioxabicyclo[3.2.1]octane-2,3-diol]
> 20000 | OC[C@@]12CO[C@@H](O1)[C@H](Nc1ncc3c(C(F)(F)F)n[nH]c3n1)[C@@H](O)[C@H]2O [A37, (1S,2R,3R,4R,5S)-1-(hydroxymethyl)-4-((3-(trifluoromethyl)-1H-pyrazolo[3,4-d]pyrimidin-6-yl)amino)-6,8-dioxabicyclo[3.2.1]octane-2,3-diol]
< 1000 | OC[C@@]12CO[C@@H](O1)[C@H](Nc1ncc(C(F)(F)F)c(Cl)n1)[C@@H](O)[C@H]2O [A115, (1S,2R,3R,4R,5S)-4-((4-chloro-5-(trifluoromethyl)pyrimidin-2-yl)amino)-1-(hydroxymethyl)-6,8-dioxabicyclo[3.2.1]octane-2,3-diol]
10000 to 100000 | C[C@@H]1O[C@H](CO)[C@H](O)[C@H](O)[C@H]1Nc1nccc(C(F)(F)F)n1 [A55, (2R,3R,4R,5R,6S)-2-(hydroxymethyl)-6-methyl-5-((4-(trifluoromethyl)pyrimidin-2-yl)amino)tetrahydro-2H-pyran-3,4-diol]
< 1000 | [N-]=[N+]=NC[C@H]1OC[C@H](Nc2nccc(C(F)(F)F)n2)[C@@H](O)[C@H]1O [A59, (2R,3R,4R,5S)-2-(azidomethyl)-5-((4-(trifluoromethyl)pyrimidin-2-yl)amino)tetrahydro-2H-pyran-3,4-diol]
< 1000 | O=C(O)CC(=O)NC[C@H]1OC[C@H](Nc2cncc(C(F)(F)F)n2)[C@@H](O)[C@H]1O [A32, 3-((((2R,3R,4R,5S)-3,4-dihydroxy-5-((6-(trifluoromethyl)pyrazin-2-yl)amino)tetrahydro-2H-pyran-2-yl)methyl)amino)-3-oxopropanoic acid]
< 1000 | NC[C@H]1OC[C@H](Nc2cncc(C(F)(F)F)n2)[C@@H](O)[C@H]1O [A89, (2R,3R,4R,5S)-2-(aminomethyl)-5-((6-(trifluoromethyl)pyrazin-2-yl)amino)tetrahydro-2H-pyran-3,4-diol]
< 1000 | COc1cccc(N(C)C[C@H]2OC[C@H](Nc3cncc(C(F)(F)F)n3)[C@@H](O)[C@H]2O)c1 [A106, (2R,3R,4R,5S)-2-(((3-methoxyphenyl)(methyl)amino)methyl)-5-((6-(trifluoromethyl)pyrazin-2-yl)amino)tetrahydro-2H-pyran-3,4-diol]
100 to 500 | O=C(O)COCCOCCOCCOC[C@H]1OC[C@H](Nc2nccc(C(F)(F)F)n2)[C@@H](O)[C@H]1O [A25, 1-((2R,3R,4R,5S)-3,4-dihydroxy-5-((4-(trifluoromethyl)pyrimidin-2-yl)amino)tetrahydro-2H-pyran-2-yl)-2,5,8,11-tetraoxatridecan-13-oic acid]
1000 to 10000 | OCc1cnn(C[C@H]2OC[C@H](Nc3nccc(C(F)(F)F)n3)[C@@H](O)[C@H]2O)c1 [A62, (2R,3R,4R,5S)-2-((4-(hydroxymethyl)-1H-pyrazol-1-yl)methyl)-5-((4-(trifluoromethyl)pyrimidin-2-yl)amino)tetrahydro-2H-pyran-3,4-diol]
1000 to 10000 | COC(=N)c1cc(OC)nc(N[C@H]2CO[C@H](CO)[C@H](O)[C@@H]2O)n1 [A48, methyl 2-(((3S,4R,5R,6R)-4,5-dihydroxy-6-(hydroxymethyl)tetrahydro-2H-pyran-3-yl)amino)-6-methoxypyrimidine-4-carbimidate]
< 100 | O=C(O)COCCOCCOCC(=O)NC(COCCC(=O)NCCOCCOCCOCCOC[C@H]1OC[C@H](Nc2nccc(C(F)(F)F)n2)[C@@H](O)[C@H]1O)COCCC(=O)NCCOCCOCCOCCOC[C@H]1OC[C@H](Nc2nccc(C(F)(F)F)n2)[C@@H](O)[C@H]1O [A23, 1-((2R,3R,4R,5S)-3,4-dihydroxy-5-((4-(trifluoromethyl)pyrimidin-2-yl)amino)tetrahydro-2H-pyran-2-yl)-20-(1-((2R,3R,4R,5S)-3,4-dihydroxy-5-((4-(trifluoromethyl)pyrimidin-2-yl)amino)tetrahydro-2H-pyran-2-yl)-15-oxo-2,5,8,11,18-pentaoxa-14-azanonadecan-19-yl)-15,22-dioxo-2,5,8,11,18,24,27,30-octaoxa-14,21-diazadotriacontan-32-oic acid]
